In patent US9738634B2, “Heterocyclic amide compound and herbicide” (SYNGENTA PARTICIPATIONS AG, priority 2013, dated 2017):

Key:
Type in all cases: in vivo
bulrush [1] = assay: Test Example 2: weedkilling efficacy, growth period weed treatment in the submerged state; B: bulrush
Summary of the method: (§1)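 Weeds treated at the 1-2 leaf stage by application of diluted emulsion onto floodwater (4 cm depth, alluvial soil) at specified g/ha. Grown in greenhouse at 25 to 30° C; herbicidal effect rated three weeks after treatment.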

barnyard grass [2] = assay: Test Example 2: weedkilling efficacy, growth period weed treatment in the submerged state; A: barnyard grass
Summary of the method: as §1

oval-leafed pondweed [3] = assay: Test Example 1: weedkilling efficacy, preemergent weed treatment in the submerged state; C: oval-leafed pondweed
Summary of the method: (§2)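 Pre-emergence application onto floodwater (4 cm, alluvial soil) on the day of sowing, dose expressed as g/ha from diluted emulsion formulation. Weeds sown with 2.5-leaf transplanted rice as crop; plants held at 25–30 °C in greenhouse and scored against assessment criteria after 3 weeks.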

bulrush [4] = assay: Test Example 1: weedkilling efficacy, preemergent weed treatment in the submerged state; B: bulrush
Summary of the method: as §2

transplanted rice = assay: Test Example 1: preemergent weed treatment in the submerged state, effect on crop; a: transplanted rice
Summary of the method: as §2

barnyard grass [5] = assay: Test Example 1: weedkilling efficacy, preemergent weed treatment in the submerged state; A: barnyard grass
Summary of the method: as §2

oval-leafed pondweed [6] = assay: Test Example 2: weedkilling efficacy, growth period weed treatment in the submerged state; C: oval-leafed pondweed
Summary of the method: as §1

Compound	B (bulrush) weedkilling efficacy grade (bulrush [1]; treatment dosage 252 g/ha)	A (barnyard grass) weedkilling efficacy grade (barnyard grass [2]; treatment dosage 252 g/ha)	C (oval-leafed pondweed) weedkilling efficacy grade (oval-leafed pondweed [3]; treatment dosage 252 g/ha)	B (bulrush) weedkilling efficacy grade (bulrush [4]; treatment dosage 252 g/ha)	a (transplanted rice) effect on crop grade (transplanted rice; treatment dosage 252 g/ha)	A (barnyard grass) weedkilling efficacy grade (barnyard grass [5]; treatment dosage 252 g/ha)	C (oval-leafed pondweed) weedkilling efficacy grade (oval-leafed pondweed [6]; treatment dosage 252 g/ha)	also measured
CC1=C(c2ccccc2)C(=O)N(C(C)(C)C(=O)Nc2nnc(-c3ccccc3)s2)CO1 [B-1-11]	4 (weed kill ratio 70% or more, less than 90%)	1 (weed kill ratio 5% or more, less than 20%)	5 (weed kill ratio 90% or more, (practically complete withering))	5 (weed kill ratio 90% or more, (practically complete withering))	0 (weed kill ratio 5% or less (practically no effect))	4 (weed kill ratio 70% or more, less than 90%)	3 (weed kill ratio 40% or more, less than 70%)	
CC1=C(c2cccnc2F)C(=O)N(C(C)(C)C(=O)Nc2cccc(Br)n2)CO1 [B-2-10]								B (bulrush) weedkilling efficacy grade (bulrush [1]; treatment dosage 320 g/ha): 5 (weed kill ratio 90% or more, (practically complete withering)); A (barnyard grass) weedkilling efficacy grade (barnyard grass [2]; treatment dosage 320 g/ha): 5 (weed kill ratio 90% or more, (practically complete withering)); C (oval-leafed pondweed) weedkilling efficacy grade (oval-leafed pondweed [3]; treatment dosage 320 g/ha): 5 (weed kill ratio 90% or more, (practically complete withering)); B (bulrush) weedkilling efficacy grade (bulrush [4]; treatment dosage 320 g/ha): 5 (weed kill ratio 90% or more, (practically complete withering)); a (transplanted rice) effect on crop grade (transplanted rice; treatment dosage 320 g/ha): 1 (weed kill ratio 5% or more, less than 20%); A (barnyard grass) weedkilling efficacy grade (barnyard grass [5]; treatment dosage 320 g/ha): 5 (weed kill ratio 90% or more, (practically complete withering)); C (oval-leafed pondweed) weedkilling efficacy grade (oval-leafed pondweed [6]; treatment dosage 320 g/ha): 5 (weed kill ratio 90% or more, (practically complete withering))
CC1=C(c2cccnc2F)C(=O)N(C(C)(C)C(=O)Nc2cc(C(F)(F)F)ccn2)CO1 [B-2-17]	5 (weed kill ratio 90% or more, (practically complete withering))	4 (weed kill ratio 70% or more, less than 90%)	5 (weed kill ratio 90% or more, (practically complete withering))	5 (weed kill ratio 90% or more, (practically complete withering))	3 (weed kill ratio 40% or more, less than 70%)	5 (weed kill ratio 90% or more, (practically complete withering))	3 (weed kill ratio 40% or more, less than 70%)	
CC1=C(c2ccccc2)C(=O)N(C(C)(C)C(=O)Nc2cc(Cl)cc(-c3ccccc3)n2)CO1 [B-2-45]								B (bulrush) weedkilling efficacy grade (bulrush [1]; treatment dosage 320 g/ha): 2 (weed kill ratio 20% or more, less than 40%); A (barnyard grass) weedkilling efficacy grade (barnyard grass [2]; treatment dosage 320 g/ha): 4 (weed kill ratio 70% or more, less than 90%); C (oval-leafed pondweed) weedkilling efficacy grade (oval-leafed pondweed [3]; treatment dosage 320 g/ha): 4 (weed kill ratio 70% or more, less than 90%); B (bulrush) weedkilling efficacy grade (bulrush [4]; treatment dosage 320 g/ha): 5 (weed kill ratio 90% or more, (practically complete withering)); a (transplanted rice) effect on crop grade (transplanted rice; treatment dosage 320 g/ha): 2 (weed kill ratio 20% or more, less than 40%); A (barnyard grass) weedkilling efficacy grade (barnyard grass [5]; treatment dosage 320 g/ha): 5 (weed kill ratio 90% or more, (practically complete withering)); C (oval-leafed pondweed) weedkilling efficacy grade (oval-leafed pondweed [6]; treatment dosage 320 g/ha): 4 (weed kill ratio 70% or more, less than 90%)
CC1=C(c2ccccc2)C(=O)N(C(C)(C)C(=O)Nc2cc(Oc3ccccc3)cc(Cl)n2)CO1 [B-2-48]								B (bulrush) weedkilling efficacy grade (bulrush [1]; treatment dosage 266 g/ha): 2 (weed kill ratio 20% or more, less than 40%); A (barnyard grass) weedkilling efficacy grade (barnyard grass [2]; treatment dosage 266 g/ha): 0 (weed kill ratio 5% or less (practically no effect)); C (oval-leafed pondweed) weedkilling efficacy grade (oval-leafed pondweed [3]; treatment dosage 266 g/ha): 4 (weed kill ratio 70% or more, less than 90%); B (bulrush) weedkilling efficacy grade (bulrush [4]; treatment dosage 266 g/ha): 5 (weed kill ratio 90% or more, (practically complete withering)); a (transplanted rice) effect on crop grade (transplanted rice; treatment dosage 266 g/ha): 0 (weed kill ratio 5% or less (practically no effect)); A (barnyard grass) weedkilling efficacy grade (barnyard grass [5]; treatment dosage 266 g/ha): 5 (weed kill ratio 90% or more, (practically complete withering)); C (oval-leafed pondweed) weedkilling efficacy grade (oval-leafed pondweed [6]; treatment dosage 266 g/ha): 0 (weed kill ratio 5% or less (practically no effect))
CC1=C(c2ccccc2)C(=O)N(C(C)(C)C(=O)Nc2cc(-c3ccccc3)ccn2)CO1 [B-2-59]	1 (weed kill ratio 5% or more, less than 20%)	0 (weed kill ratio 5% or less (practically no effect))	2 (weed kill ratio 20% or more, less than 40%)	4 (weed kill ratio 70% or more, less than 90%)	0 (weed kill ratio 5% or less (practically no effect))	2 (weed kill ratio 20% or more, less than 40%)	0 (weed kill ratio 5% or less (practically no effect))	
CC1=C(c2ccccc2)C(=O)N(C(C)(C)C(=O)Nc2cccc(-c3ccccc3)n2)CO1 [B-2-60]	3 (weed kill ratio 40% or more, less than 70%)	4 (weed kill ratio 70% or more, less than 90%)	5 (weed kill ratio 90% or more, (practically complete withering))	5 (weed kill ratio 90% or more, (practically complete withering))	0 (weed kill ratio 5% or less (practically no effect))	5 (weed kill ratio 90% or more, (practically complete withering))	3 (weed kill ratio 40% or more, less than 70%)	
